Assay results: patent US5488060A, “Substituted thiadiazoles, compositions containing them and their use as antimicrobial and marine antifouling agents” (The Dow Chemical Company, priority 1994, dated 1996)
Values after ≈ are worked out from the molar mass of the structure shown. Where two headings read alike, the source gives them in different places.

Tests used:
Format in all cases: cell-based
[1] = test system: Staphylococcus aureus (Sa); assay: Minimum inhibitory concentration (MIC) in nutrient agar, Staphylococcus aureus
Protocol: (§1) The antimicrobial activity of the compounds of the present invention is set forth as the minimum inhibitory concentration (MIC) for the active compounds and is determined for nine (9) bacteria, using nutrient agar, and seven (7) yeast and fungi, using malt yeast agar. This determination is conducted using a one percent solution of the test compound prepared in a mixture of acetone and water.
(§2) Nutrient agar is prepared at pH 6.8, representing a neutral medium, and at pH 8.2, representing an alkaline medium. The nutrient agars are prepared by adding 23 g of nutrient agar to one-liter of deionized water. In addition, the alkaline medium is prepared by adjusting a 0.04M solution of N-[tris-(hydroxymethyl)methyl]glycine buffered deionized water with concentrated sodium hydroxide to a pH of 8.5.
(§3) The test tubes containing the agar are cooled in a water bath until the temperature of the agar is 48° C. Then, an appropriate amount of the one percent solution of the test compound is added (except in the controls where no compound is added) to the respective test tubes so that the final concentrations are 500, […], 100, 50, 25, 10, 5, 2.5, 1.0 and zero parts per million of the test compound in the agar, thus having a known concentration of test compound dispersed therein. The contents of the test tubes are then transferred to respective petri plates. After drying for 24 hours, the petri plates containing nutrient agar are inoculated with bacteria and those containing malt yeast agar are inoculated with yeast and fungi.
(§4) The inoculation with bacteria is accomplished by using the following procedure. Twenty-four hour-cultures of each of the bacteria are prepared by incubating the respective bacteria in tubes containing nutrient broth for 24 hours at 30° C. in a shaker. Dilutions of each of the 24 hour-cultures are made so that nine separate suspensions (one for each of the nine test bacteria) are made, each containing 10^8 colony forming units (CFU) per mL of suspension of a particular bacteria. Aliquots of 0.3 mL of each of the bacterial suspensions are used to fill the individual wells of Steer's Replicator. For each microbial suspension, 0.3 mL was used to fill three wells (i.e., three wells of 0.3 mL each) so that for the nine different bacteria, 27 wells are filled. The Steer's Replicator is then used to inoculate both the neutral and alkaline pH nutrient agar petri plates.
(§5) The inoculated petri plates are incubated at 30° C. for 48 hours and then read to determine if the test compound which is incorporated into the agar prevented growth of the respective bacteria.

[2] = test system: Klebsiella pneumoniae (Kp); assay: Minimum inhibitory concentration (MIC) in nutrient agar, Klebsiella pneumoniae
Protocol: as §1, §2, §3, §4, §5

Proteus vulgaris (Pv) = assay: Minimum inhibitory concentration (MIC) in nutrient agar, Proteus vulgaris
Protocol: as §1, §2, §3, §4, §5

[3] = test system: Salmonella choleraesuis (Se); assay: Minimum inhibitory concentration (MIC) in nutrient agar, Salmonella choleraesuis; details: Salmonella enterica
Protocol: as §1, §2, §3, §4, §5

Candida albicans (Ca) = assay: Minimum inhibitory concentration (MIC) in malt yeast agar, Candida albicans
Protocol: as §1
(§6) Malt yeast agar is prepared at pH 5.5 by adding 3 g yeast extract and 45 g malt agar per liter of deionized water. The specific agar is dispensed in 30 mL aliquots into 25×200 mm test tubes, capped and autoclaved for 15 minutes at 115° C.
as §3
(§7) The inoculation with the yeast and fungi is accomplished as follows. Cultures of yeast and fungi are incubated for seven days on malt yeast agar at 30° C. These cultures are used to prepare suspensions by the following procedure. A suspension of each organism is prepared by adding 10 mL of sterile saline and 10 microliters of octylphenoxy polyethoxy ethanol to the agar slant of yeast or fungi. The sterile saline/octylphenoxy potyethoxy ethanol solution is then agitated with a sterile swab to suspend the microorganism grown on the slant. Each resulting suspension is diluted into sterile saline (1 part suspension: 9 parts sterile saline). Aliquots of these dilutions are placed in individual wells of Steer's Replicator and petri plates inoculated as previously described. The petri plates are incubated at 30° C. and read after 48 hours for yeast and 72 hours for fungi.

[4] = test system: Saccharomyces cerevisiae (Sc); assay: Minimum inhibitory concentration (MIC) in malt yeast agar, Saccharomyces cerevisiae; details: pH 5.5, malt yeast agar, 30° C., 48 hours for yeast, read-out: Minimum Inhibitory Concentration, SC
Protocol: as §1, §6, §3, §7

[5] = test system: Aureobasidium pullulan (Ap); assay: Minimum inhibitory concentration (MIC) in malt yeast agar, Aureobasidium pullulan
Protocol: as §1, §6, §3, §7

[6] = test system: Pseudomonas aeruginosa (PRD-10); assay: Minimum inhibitory concentration (MIC) in nutrient agar, Pseudomonas aeruginosa PRD-10
Protocol: as §1, §2, §3, §4, §5

[7] = test system: Enterobacter aerogenes (Ea); assay: Minimum inhibitory concentration (MIC) in nutrient agar, Enterobacter aerogenes; details: Klebsiella aerogenes
Protocol: as §1, §2, §3, §4, §5

Bacillus subtilis (Bs) = assay: Minimum inhibitory concentration (MIC) in nutrient agar, Bacillus subtilis
Protocol: as §1, §2, §3, §4, §5

Escherichia coli (Ec) = assay: Minimum inhibitory concentration (MIC) in nutrient agar, Escherichia coli
Protocol: as §1, §2, §3, §4, §5

Aspergillus niger (An) = assay: Minimum inhibitory concentration (MIC) in malt yeast agar, Aspergillus niger; details: pH 5.5; malt yeast agar, 30° C., 72 hours for fungi; read-out: Minimum Inhibitory Concentration, An
Protocol: as §1, §6, §3, §7

Fusarium oxysporum (Fo) = assay: Minimum inhibitory concentration (MIC) in malt yeast agar, Fusarium oxysporum
Protocol: as §1, §6, §3, §7

Trichoderma viride (Tv) = assay: Minimum inhibitory concentration (MIC) in malt yeast agar, Trichoderma viride; details: 72 h, pH 5.5, read-out: Minimum Inhibitory Concentration, Tv
Protocol: as §1, §6, §3, §7

[8] = test system: Pseudomonas aeruginosa (Pa); assay: Minimum inhibitory concentration (MIC) in nutrient agar, Pseudomonas aeruginosa; details: 30° C., 48 hours, read-out: Minimum Inhibitory Concentration, Pa
Protocol: as §1, §2, §3, §4, §5

[9] = test system: Penicillium chrysogenum (Pc); assay: Minimum inhibitory concentration (MIC) in malt yeast agar, Penicillium chrysogenum
Protocol: as §1, §6, §3, §7

[10] = 48 h, pH 8.2, read-out: Minimum Inhibitory Concentration, Sa
[11] = pH 6.8, nutrient agar, 30° C., 48 hours, read-out: Minimum Inhibitory Concentration, Sa
[12] = 48 h, pH 8.2, read-out: Minimum Inhibitory Concentration, Kp
[13] = pH 6.8, nutrient agar, 30° C., 48 hours, read-out: Minimum Inhibitory Concentration, Kp
[14] = 48 h, pH 6.8, read-out: Minimum Inhibitory Concentration, Pv
[15] = 48 h, pH 8.2, read-out: Minimum Inhibitory Concentration, Pv
[16] = 48 h, pH 6.8, read-out: Minimum Inhibitory Concentration, SC
[17] = 48 h, pH 8.2, read-out: Minimum Inhibitory Concentration, SC
[18] = pH 5.5, malt yeast agar, 30° C., 48 hours for yeast, read-out: Minimum Inhibitory Concentration, Ca
[19] = 48 h, pH 6.8, read-out: Minimum Inhibitory Concentration, PRD
[20] = 48 h, pH 8.2, read-out: Minimum Inhibitory Concentration, PRD
[21] = 48 h, pH 6.8, read-out: Minimum Inhibitory Concentration, Ea
[22] = 48 h, pH 8.2, read-out: Minimum Inhibitory Concentration, Ea
[23] = pH 6.8, nutrient agar, 30° C., 48 hours, read-out: Minimum Inhibitory Concentration, Bs
[24] = 48 h, pH 6.8, read-out: Minimum Inhibitory Concentration, Ec
[25] = 48 h, pH 8.2, read-out: Minimum Inhibitory Concentration, Ec
[26] = pH 5.5, malt yeast agar, 30° C., read-out: Minimum Inhibitory Concentration, Ap
[27] = pH 8.2, nutrient agar, 30° C., 48 hours, read-out: Minimum Inhibitory Concentration, Bs
[28] = pH 5.5, malt yeast agar, 30° C., 72 hours for fungi, read-out: Minimum Inhibitory Concentration, Fo
[29] = 72 h, pH 5.5, read-out: Minimum Inhibitory Concentration, PC

Row | SMILES | MIC [1, 10] | MIC [1, 11] | MIC [2, 12] | MIC [2, 13] | MIC (Proteus vulgaris (Pv); [14]) | MIC (Proteus vulgaris (Pv); [15]) | MIC [3, 16] | MIC [3, 17] | MIC (Candida albicans (Ca); [18]) | MIC [4] | MIC [6, 19] | MIC [6, 20] | MIC [7, 21] | MIC [7, 22] | MIC (Bacillus subtilis (Bs); [23]) | MIC (Escherichia coli (Ec); [24]) | MIC (Aspergillus niger (An)) | MIC (Trichoderma viride (Tv)) | MIC ([8]; pH 6.8, nutrient agar) | MIC ([8]; pH 8.2, nutrient agar) | other results
1 | CS(=O)(=O)c1ccc(-c2nsnc2SC#N)cc1 [Example XI, 4-(4-Methylsulfonylphenyl)-3-thiocyanato-l,2,5-thiadiazole] | 500 µg/mL (≈ 1680 µM) | 100 µg/mL (≈ 336 µM) | 500 µg/mL (≈ 1680 µM) | 250 µg/mL (≈ 841 µM) | 500 µg/mL (≈ 1680 µM) | 500 µg/mL (≈ 1680 µM) | 500 µg/mL (≈ 1680 µM) | 500 µg/mL (≈ 1680 µM) | 500 µg/mL (≈ 1680 µM) | 250 µg/mL (≈ 841 µM) | 500 µg/mL (≈ 1680 µM) | 500 µg/mL (≈ 1680 µM) | 500 µg/mL (≈ 1680 µM) | 500 µg/mL (≈ 1680 µM) | 25 µg/mL (≈ 84.1 µM) | 500 µg/mL (≈ 1680 µM) | 500 µg/mL (≈ 1680 µM) | 250 µg/mL (≈ 841 µM) | 500 µg/mL (≈ 1680 µM) | 500 µg/mL (≈ 1680 µM) | MIC ([5]; pH 5.5, read-out: Minimum Inhibitory Concentration, Ap): 50 µg/mL (≈ 168 µM); MIC (Bacillus subtilis (Bs); 48 h, pH 8.2, read-out: Minimum Inhibitory Concentration, Bs): 500 µg/mL (≈ 1680 µM); MIC (Escherichia coli (Ec); [25]): 500 µg/mL (≈ 1680 µM); MIC (Fusarium oxysporum (Fo); 72 h, pH 5.5, read-out: Minimum Inhibitory Concentration, Fo): 100 µg/mL (≈ 336 µM); MIC ([9]; pH 5.5, malt yeast agar, 30° C., 72 hours for fungi, read-out: Minimum Inhibitory Concentration, PC): 500 µg/mL (≈ 1680 µM)
2 | N#CSc1nsnc1-c1ccc([N+](=O)[O-])cc1 [Example XIII, 4-(4-nitrophenyl)-3-thiocyanato-1,2,5-thiadiazole] | – | – | – | 100 µg/mL (≈ 378 µM) | 500 µg/mL (≈ 1890 µM) | – | 500 µg/mL (≈ 1890 µM) | – | < 10 µg/mL | < 10 µg/mL | 500 µg/mL (≈ 1890 µM) | – | 500 µg/mL (≈ 1890 µM) | – | 25 µg/mL (≈ 94.6 µM) | 500 µg/mL (≈ 1890 µM) | < 10 µg/mL | < 10 µg/mL | 500 µg/mL (≈ 1890 µM) | > 100 µg/mL | MIC ([1]; 48 h, pH 6.8, read-out: Minimum Inhibitory Concentration, Sa): 50 µg/mL (≈ 189 µM); MIC ([1]; pH 8.2, nutrient agar, 30° C., 48 hours, read-out: Minimum Inhibitory Concentration, Sa): > 100 µg/mL; MIC ([2]; pH 8.2, nutrient agar, 30° C., 48 hours, read-out: Minimum Inhibitory Concentration, Kp): > 100 µg/mL; MIC (Proteus vulgaris (Pv); pH 8.2, nutrient agar, 30° C., 48 hours, read-out: Minimum Inhibitory Concentration, Pv): > 100 µg/mL; MIC ([3]; pH 8.2, nutrient agar, 30° C., 48 hours, read-out: Minimum Inhibitory Concentration, SC): > 100 µg/mL; MIC [5, 26]: < 10 µg/mL; MIC ([6]; pH 8.2, nutrient agar, 30° C., 48 hours, read-out: Minimum Inhibitory Concentration, PRD): > 100 µg/mL; MIC ([7]; pH 8.2, nutrient agar, 30° C., 48 hours, read-out: Minimum Inhibitory Concentration, Ea): > 100 µg/mL; MIC (Bacillus subtilis (Bs); [27]): > 100 µg/mL; MIC (Escherichia coli (Ec); pH 8.2, nutrient agar, 30° C., 48 hours, read-out: Minimum Inhibitory Concentration, Ec): > 100 µg/mL; MIC (Fusarium oxysporum (Fo); [28]): < 10 µg/mL; MIC [9, 29]: < 10 µg/mL
3 | N#CSc1nsnc1-c1cccs1 [Example XIV, 4-(2-Thiophene)-3-thiocyanato-1,2,5-thiadiazole] | 500 µg/mL (≈ 2220 µM) | 25 µg/mL (≈ 111 µM) | 500 µg/mL (≈ 2220 µM) | 25 µg/mL (≈ 111 µM) | – | 500 µg/mL (≈ 2220 µM) | – | 500 µg/mL (≈ 2220 µM) | – | < 10 µg/mL | 500 µg/mL (≈ 2220 µM) | 500 µg/mL (≈ 2220 µM) | – | 500 µg/mL (≈ 2220 µM) | 25 µg/mL (≈ 111 µM) | 50 µg/mL (≈ 222 µM) | < 10 µg/mL | < 10 µg/mL | 500 µg/mL (≈ 2220 µM) | 500 µg/mL (≈ 2220 µM) | MIC (Proteus vulgaris (Pv); pH 6.8, nutrient agar, 30° C., 48 hours, read-out: Minimum Inhibitory Concentration, Pv): 50 µg/mL (≈ 222 µM); MIC ([3]; pH 6.8, nutrient agar, 30° C., 48 hours, read-out: Minimum Inhibitory Concentration, SC): 50 µg/mL (≈ 222 µM); MIC (Candida albicans (Ca); 48 h, pH 5.5, read-out: Minimum Inhibitory Concentration, Ca): 25 µg/mL (≈ 111 µM); MIC [5, 26]: < 10 µg/mL; MIC ([7]; pH 6.8, nutrient agar, 30° C., 48 hours, read-out: Minimum Inhibitory Concentration, Ea): 100 µg/mL (≈ 444 µM); MIC (Bacillus subtilis (Bs); [27]): 100 µg/mL (≈ 444 µM); MIC (Escherichia coli (Ec); [25]): 500 µg/mL (≈ 2220 µM); MIC (Fusarium oxysporum (Fo); [28]): < 10 µg/mL; MIC [9, 29]: < 10 µg/mL
